From ChEMBL document CHEMBL4507329, “Data for DCP probe BTZO-1” (2021)
Calls of active or inactive are those of the source. No cut-off for these calls is given here.

What was measured:
[1] = target: Cyclin-dependent kinase 8 (Homo sapiens, UniProt P49336); experiment: Inhibition of CDK8 at compound concentration of 10.0 uM using the ScanMax (DiscoverX)
[2] = target: GABA-A receptor; anion channel; experiment: GPCRScan assay: inhibition of GABAA/BZP; type: protein-complex assay, Rattus norvegicus; design: radioligand conc. used [nm] 0.6 – 4.0, parental cells brain tissue
[3] = target: T1, Macrophage migration inhibitory factor (Homo sapiens) (UniProt P14174); experiment: Apoptosis inhibition
T1 sequence (whole entry): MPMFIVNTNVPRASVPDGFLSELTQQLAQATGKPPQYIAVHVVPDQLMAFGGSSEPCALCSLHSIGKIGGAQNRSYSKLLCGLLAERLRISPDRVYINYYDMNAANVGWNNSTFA

[4] = target: Macrophage migration inhibitory factor (Homo sapiens, UniProt P14174); experiment: Scintillation proximity assay (SPA) measurement of selective [3H]-BTZO-1 binding to hMIF-His
[5] = target: Macrophage migration inhibitory factor (Rattus norvegicus, UniProt P30904); experiment: Scintillation proximity assay (SPA) measurement of selective [3H]-BTZO-1 binding to rMIF-His
Chain of Macrophage migration inhibitory factor (Rattus norvegicus, UniProt P30904) (P30904 2-115 limits assumed): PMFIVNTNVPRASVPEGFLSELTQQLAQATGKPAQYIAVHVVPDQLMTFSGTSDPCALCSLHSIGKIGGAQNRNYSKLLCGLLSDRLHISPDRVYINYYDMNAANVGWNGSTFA

[6] = target: Ephrin type-A receptor 8 (Homo sapiens) (UniProt P29322); details: Compound concentration 1000.0 nM
Chain of Ephrin type-A receptor 8 (Homo sapiens) (P29322 whole entry): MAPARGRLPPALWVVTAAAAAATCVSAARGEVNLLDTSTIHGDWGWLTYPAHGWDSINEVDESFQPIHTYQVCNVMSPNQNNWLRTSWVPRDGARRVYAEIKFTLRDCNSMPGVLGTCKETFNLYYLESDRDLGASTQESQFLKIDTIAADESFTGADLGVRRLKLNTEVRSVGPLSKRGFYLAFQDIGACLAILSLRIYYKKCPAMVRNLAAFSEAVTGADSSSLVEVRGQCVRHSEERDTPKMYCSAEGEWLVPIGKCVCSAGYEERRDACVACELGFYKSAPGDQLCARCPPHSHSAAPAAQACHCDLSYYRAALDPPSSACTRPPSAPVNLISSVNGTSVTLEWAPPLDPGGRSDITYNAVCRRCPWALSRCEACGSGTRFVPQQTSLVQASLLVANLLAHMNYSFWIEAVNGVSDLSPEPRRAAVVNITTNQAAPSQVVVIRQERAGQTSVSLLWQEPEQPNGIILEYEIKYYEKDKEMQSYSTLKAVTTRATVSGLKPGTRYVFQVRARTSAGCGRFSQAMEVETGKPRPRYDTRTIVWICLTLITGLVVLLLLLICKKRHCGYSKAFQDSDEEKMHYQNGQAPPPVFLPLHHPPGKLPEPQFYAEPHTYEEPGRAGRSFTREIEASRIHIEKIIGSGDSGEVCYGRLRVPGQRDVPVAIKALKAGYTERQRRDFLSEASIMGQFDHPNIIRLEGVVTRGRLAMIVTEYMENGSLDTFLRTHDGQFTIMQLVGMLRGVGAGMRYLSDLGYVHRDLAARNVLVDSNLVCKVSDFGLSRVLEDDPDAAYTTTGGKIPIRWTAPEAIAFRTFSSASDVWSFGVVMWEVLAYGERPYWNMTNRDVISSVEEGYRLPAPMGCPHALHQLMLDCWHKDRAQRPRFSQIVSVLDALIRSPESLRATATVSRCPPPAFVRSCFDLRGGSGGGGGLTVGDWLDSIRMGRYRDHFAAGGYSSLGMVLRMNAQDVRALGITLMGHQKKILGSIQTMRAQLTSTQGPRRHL

[7] = target: Dual specificity mitogen-activated protein kinase kinase 5 (Homo sapiens) (UniProt Q13163); details: Compound concentration 1000.0 nM
Chain of Dual specificity mitogen-activated protein kinase kinase 5 (Homo sapiens) (Q13163 whole entry): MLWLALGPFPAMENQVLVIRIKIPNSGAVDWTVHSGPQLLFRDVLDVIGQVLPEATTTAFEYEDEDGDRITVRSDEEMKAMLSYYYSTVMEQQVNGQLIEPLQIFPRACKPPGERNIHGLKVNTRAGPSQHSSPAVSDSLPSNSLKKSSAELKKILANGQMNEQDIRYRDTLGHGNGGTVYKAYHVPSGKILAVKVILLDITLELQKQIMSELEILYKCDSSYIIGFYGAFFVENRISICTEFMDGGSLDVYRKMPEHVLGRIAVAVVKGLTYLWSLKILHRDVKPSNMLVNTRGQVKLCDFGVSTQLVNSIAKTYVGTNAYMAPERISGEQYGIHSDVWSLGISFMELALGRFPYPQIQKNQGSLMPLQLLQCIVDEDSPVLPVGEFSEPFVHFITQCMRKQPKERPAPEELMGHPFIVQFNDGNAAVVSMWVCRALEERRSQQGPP

[8] = target: Serine/threonine-protein kinase PknB (Mycobacterium tuberculosis) (UniProt P9WI81); details: Compound concentration 1000.0 nM
Chain of Serine/threonine-protein kinase PknB (Mycobacterium tuberculosis) (P9WI81 whole entry): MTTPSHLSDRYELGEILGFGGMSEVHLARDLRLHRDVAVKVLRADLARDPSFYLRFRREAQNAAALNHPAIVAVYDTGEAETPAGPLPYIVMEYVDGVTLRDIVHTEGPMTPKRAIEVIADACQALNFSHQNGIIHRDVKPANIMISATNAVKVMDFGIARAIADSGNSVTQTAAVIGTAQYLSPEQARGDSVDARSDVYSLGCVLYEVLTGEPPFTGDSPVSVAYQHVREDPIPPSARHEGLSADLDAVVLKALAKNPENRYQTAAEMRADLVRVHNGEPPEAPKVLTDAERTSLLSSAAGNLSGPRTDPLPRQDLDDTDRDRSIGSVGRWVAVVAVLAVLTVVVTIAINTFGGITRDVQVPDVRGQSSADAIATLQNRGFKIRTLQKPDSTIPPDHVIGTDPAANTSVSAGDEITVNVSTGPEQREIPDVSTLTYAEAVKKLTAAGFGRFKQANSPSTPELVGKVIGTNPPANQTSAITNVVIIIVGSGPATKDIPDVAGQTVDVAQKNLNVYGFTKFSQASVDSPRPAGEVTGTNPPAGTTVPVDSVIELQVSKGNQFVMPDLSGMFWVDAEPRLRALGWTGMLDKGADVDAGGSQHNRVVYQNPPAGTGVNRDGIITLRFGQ

[9] = target: Dual serine/threonine and tyrosine protein kinase (Homo sapiens) (UniProt Q6XUX3); details: Compound concentration 1000.0 nM
Chain of Dual serine/threonine and tyrosine protein kinase (Homo sapiens) (Q6XUX3 whole entry): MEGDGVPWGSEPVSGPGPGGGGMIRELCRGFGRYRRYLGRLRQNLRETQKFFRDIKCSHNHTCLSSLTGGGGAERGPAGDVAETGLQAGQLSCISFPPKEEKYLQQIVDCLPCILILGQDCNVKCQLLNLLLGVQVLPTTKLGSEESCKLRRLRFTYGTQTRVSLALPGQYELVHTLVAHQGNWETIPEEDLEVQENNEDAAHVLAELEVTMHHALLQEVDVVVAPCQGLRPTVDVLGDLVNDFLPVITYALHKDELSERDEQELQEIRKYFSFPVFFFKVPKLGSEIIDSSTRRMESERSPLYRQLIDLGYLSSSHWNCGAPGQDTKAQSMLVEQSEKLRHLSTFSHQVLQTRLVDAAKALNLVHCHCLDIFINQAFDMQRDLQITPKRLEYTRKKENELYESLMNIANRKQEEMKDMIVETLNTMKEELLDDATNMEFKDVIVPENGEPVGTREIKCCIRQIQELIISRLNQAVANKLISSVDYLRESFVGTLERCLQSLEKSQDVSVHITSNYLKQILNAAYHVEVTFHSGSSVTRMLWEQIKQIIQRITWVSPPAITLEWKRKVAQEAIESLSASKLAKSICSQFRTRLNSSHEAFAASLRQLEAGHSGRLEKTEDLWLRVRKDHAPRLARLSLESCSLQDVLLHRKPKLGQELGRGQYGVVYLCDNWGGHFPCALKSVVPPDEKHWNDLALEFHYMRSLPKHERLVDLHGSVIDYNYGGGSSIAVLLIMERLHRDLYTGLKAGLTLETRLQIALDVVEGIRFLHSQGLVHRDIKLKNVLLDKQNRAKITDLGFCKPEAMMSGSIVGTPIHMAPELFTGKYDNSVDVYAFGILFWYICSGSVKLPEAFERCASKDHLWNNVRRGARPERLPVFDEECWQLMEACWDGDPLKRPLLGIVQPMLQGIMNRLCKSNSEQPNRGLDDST

[10] = target: TGF-beta receptor type-2 (Homo sapiens) (UniProt P37173); details: Compound concentration 1000.0 nM
Chain of TGF-beta receptor type-2 (Homo sapiens) (P37173 whole entry): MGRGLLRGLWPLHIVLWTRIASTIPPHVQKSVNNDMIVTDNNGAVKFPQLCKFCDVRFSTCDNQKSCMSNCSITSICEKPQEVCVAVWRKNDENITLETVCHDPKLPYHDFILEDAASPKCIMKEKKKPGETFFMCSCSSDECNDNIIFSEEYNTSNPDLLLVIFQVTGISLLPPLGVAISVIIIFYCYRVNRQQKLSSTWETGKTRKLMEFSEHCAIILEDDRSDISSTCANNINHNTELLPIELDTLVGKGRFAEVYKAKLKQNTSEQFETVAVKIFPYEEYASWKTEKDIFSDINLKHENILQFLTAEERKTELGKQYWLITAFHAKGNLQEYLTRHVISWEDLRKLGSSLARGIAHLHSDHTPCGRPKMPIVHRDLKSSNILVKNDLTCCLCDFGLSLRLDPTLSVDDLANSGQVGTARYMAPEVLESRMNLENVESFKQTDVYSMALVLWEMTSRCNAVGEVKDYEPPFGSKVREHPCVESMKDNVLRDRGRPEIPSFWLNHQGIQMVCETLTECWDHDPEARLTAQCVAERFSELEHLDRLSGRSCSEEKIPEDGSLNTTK

[11] = target: Non-receptor tyrosine-protein kinase TNK1 (Homo sapiens) (UniProt Q13470); details: Compound concentration 1000.0 nM
Chain of Non-receptor tyrosine-protein kinase TNK1 (Homo sapiens) (Q13470 whole entry): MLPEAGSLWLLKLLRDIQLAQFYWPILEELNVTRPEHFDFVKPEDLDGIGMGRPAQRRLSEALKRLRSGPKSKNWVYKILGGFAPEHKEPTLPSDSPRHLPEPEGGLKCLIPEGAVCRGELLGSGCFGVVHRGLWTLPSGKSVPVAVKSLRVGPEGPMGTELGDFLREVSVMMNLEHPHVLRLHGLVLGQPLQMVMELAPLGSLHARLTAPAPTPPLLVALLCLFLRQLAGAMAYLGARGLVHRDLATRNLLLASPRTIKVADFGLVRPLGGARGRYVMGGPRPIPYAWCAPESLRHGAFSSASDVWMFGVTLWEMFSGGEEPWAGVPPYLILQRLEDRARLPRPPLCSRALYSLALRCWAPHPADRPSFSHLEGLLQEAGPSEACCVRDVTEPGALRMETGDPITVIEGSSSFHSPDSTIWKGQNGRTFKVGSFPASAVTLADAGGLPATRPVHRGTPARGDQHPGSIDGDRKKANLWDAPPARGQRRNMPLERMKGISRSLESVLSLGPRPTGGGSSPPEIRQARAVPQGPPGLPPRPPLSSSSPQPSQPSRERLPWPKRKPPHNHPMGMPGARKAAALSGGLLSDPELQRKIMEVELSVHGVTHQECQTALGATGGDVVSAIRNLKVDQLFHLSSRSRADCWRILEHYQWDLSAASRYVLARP

[12] = target: 5-hydroxytryptamine receptor 6 (Homo sapiens) (UniProt P50406); details: Compound concentration 10.0 uM
[13] = target: GABA-A receptor; anion channel (Rattus norvegicus) (UniProt O09028+P15431+P18506+P18508+P19969+P20236+P23574+P23576+P28471+P28473+P30191+P62813+P63079+P63138+Q91ZM7+Q9ES14); details: Compound concentration 10.0 uM
[14] = target: Muscarinic acetylcholine receptor M1 (Homo sapiens) (UniProt P11229); details: Compound concentration 10.0 uM
[15] = target: Sigma intracellular receptor 2 (Homo sapiens) (UniProt Q5BJF2); details: Compound concentration 10.0 uM
[16] = target: Sigma non-opioid intracellular receptor 1 (Homo sapiens) (UniProt Q99720); details: Compound concentration 10.0 uM
[17] = target: Death-associated protein kinase 3 (Homo sapiens, UniProt O43293); experiment: Inhibition of DAPK3 at compound concentration of 10.0 uM using the ScanMax (DiscoverX)
[18] = target: G protein-coupled receptor kinase 3 (Homo sapiens, UniProt P35626); experiment: Inhibition of GRK3 at compound concentration of 10.0 uM using the ScanMax (DiscoverX)
Chain of G protein-coupled receptor kinase 3 (P35626 whole entry): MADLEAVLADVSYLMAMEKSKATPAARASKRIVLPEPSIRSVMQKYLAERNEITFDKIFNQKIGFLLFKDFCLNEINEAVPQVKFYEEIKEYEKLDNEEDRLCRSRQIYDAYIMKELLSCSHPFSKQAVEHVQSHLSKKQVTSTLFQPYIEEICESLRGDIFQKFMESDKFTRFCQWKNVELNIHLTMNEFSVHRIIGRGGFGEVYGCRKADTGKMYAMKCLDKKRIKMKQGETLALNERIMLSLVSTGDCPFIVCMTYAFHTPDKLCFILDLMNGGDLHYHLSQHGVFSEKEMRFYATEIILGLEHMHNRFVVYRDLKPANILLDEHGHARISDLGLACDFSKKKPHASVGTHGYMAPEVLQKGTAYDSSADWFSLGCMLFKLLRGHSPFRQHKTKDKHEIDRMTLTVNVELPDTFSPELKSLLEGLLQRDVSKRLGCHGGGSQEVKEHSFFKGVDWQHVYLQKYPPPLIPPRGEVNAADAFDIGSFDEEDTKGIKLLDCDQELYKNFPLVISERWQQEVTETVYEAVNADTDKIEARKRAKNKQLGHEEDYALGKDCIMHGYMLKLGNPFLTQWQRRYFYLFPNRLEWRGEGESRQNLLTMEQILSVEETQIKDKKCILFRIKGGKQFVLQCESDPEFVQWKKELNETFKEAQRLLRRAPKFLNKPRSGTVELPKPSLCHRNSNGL

[19] = target: 5-hydroxytryptamine receptor 1D (Homo sapiens) (UniProt P28221); details: Compound concentration 10.0 uM
[20] = target: 5-hydroxytryptamine receptor 5A (Homo sapiens) (UniProt P47898); details: Compound concentration 10.0 uM
[21] = target: 5-hydroxytryptamine receptor 7 (Homo sapiens) (UniProt P34969); details: Compound concentration 10.0 uM
[22] = target: Histamine H1 receptor (Homo sapiens) (UniProt P35367); details: Compound concentration 10.0 uM
[23] = target: Alpha-1A adrenergic receptor (Homo sapiens) (UniProt P35348); details: Compound concentration 10.0 uM
[24] = target: Muscarinic acetylcholine receptor M4 (Homo sapiens) (UniProt P08173); details: Compound concentration 10.0 uM

In the case of `O=c1nc(-c2ccccn2)sc2ccccc12` [BTZO-1], the Kd [1] is reported as > 10 µM (not active), the Ki [2] is reported as 0.934 µM and the MEC1.5 [3] is reported as 16 nM. The Kd [4] was 0.0686 µM (active), the Kd [5] was 0.157 µM (active) and the residual activity [6] was 78%. It also gave a residual activity [7] of 79%, a residual activity [8] of 88% and a residual activity [9] of 88%. For the same compound, the residual activity [10] was 100%, the residual activity [11] was 59% and the inhibition [12] was -1.33%. It also gave an inhibition [13] of 6.23%, an inhibition [14] of -5.27% and an inhibition [15] of 12.5%. It also gave an inhibition [16] of 14%.

`O=C1NC(c2ccccn2)Sc2ccccc21` (stereo not given) [BTZO-4] was tested, and the Kd [17] was > 10 µM (not active), the Kd [18] was > 10 µM (not active) and the residual activity [6] was 63%. It also gave a residual activity [7] of 87%, a residual activity [8] of 77% and a residual activity [9] of 92%. For the same compound, the residual activity [10] was 85%, the residual activity [11] was 55% and the inhibition [19] was -4.84%. For the same compound, the inhibition [20] was 1.93%, the inhibition [21] was -5.1% and the inhibition [22] was 49.9%. For the same compound, the inhibition [23] was -9.97% and the inhibition [24] was -4.7%.
